# US8546420B2, “4, 5-ring annulated indole derivatives for treating or preventing of HCV and related viral infections” (Merck Sharp & Dohme Corp., priority 2006, dated 2013)
# What was measured:
# HCV NS5B polymerase = molecular target: T1, HCV NS5B polymerase (Hepatitis C virus genotype 1b, UniProt P26663); assay: HCV NS5B Polymerase Inhibition Assay; format: biochemical
# T1 construct: A soluble C-terminal 21-amino acid truncated NS5B enzyme form; polyhistidine (C); made in house; host or cells: Escherichia coli
# T1 sequence (P26663 2420-2989): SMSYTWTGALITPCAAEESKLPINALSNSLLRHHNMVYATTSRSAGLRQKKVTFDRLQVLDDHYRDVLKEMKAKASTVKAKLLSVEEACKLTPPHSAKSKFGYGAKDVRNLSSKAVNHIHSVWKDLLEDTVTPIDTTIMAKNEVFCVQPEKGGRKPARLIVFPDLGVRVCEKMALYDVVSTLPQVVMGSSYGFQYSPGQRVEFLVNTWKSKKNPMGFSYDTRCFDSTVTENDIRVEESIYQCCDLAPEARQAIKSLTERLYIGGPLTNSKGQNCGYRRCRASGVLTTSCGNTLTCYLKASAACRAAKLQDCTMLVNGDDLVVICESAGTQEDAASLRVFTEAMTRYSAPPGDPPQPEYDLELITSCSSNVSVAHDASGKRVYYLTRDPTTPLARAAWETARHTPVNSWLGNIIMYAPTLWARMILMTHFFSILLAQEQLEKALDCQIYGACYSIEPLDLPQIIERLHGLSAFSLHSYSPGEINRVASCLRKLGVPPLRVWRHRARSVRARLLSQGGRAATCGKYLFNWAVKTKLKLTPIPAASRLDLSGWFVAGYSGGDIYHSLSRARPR
# Source text: A chemically synthesized 75-mer version, designated DCoH75, whose sequence matches the 3′-end of D-RNA, and DCoH75ddC, where the 3′-terminal cytidine of DCoH75 is replaced by dideoxycytidine, were used for assaying the NS5B enzyme activity as described in Ferrari et al., 12th International Symposium on HCV and Related Viruses, P-306 (2005). A soluble C-terminal 21-amino acid truncated NS5B enzyme form (NS5B[…]CT21) was produced and purified from Escherichia coli as C-terminal polyhistidine-tagged fusion protein as described in Ferrari et al., J. Virol. 73:1649-1654 (1999). A typical assay contained 20 mM Hepes pH 7.3, 10 mM MgCl2, 60 mM NaCl, 100 μg/ml BSA, 20 units/ml RNasin, 7.5 mM DTT, 0.1 μM ATP/GTP/UTP, 0.026 μM CTP, 0.25 mM GAU, 0.03 μM RNA template, 20 μCi/ml [^33P]-CTP, 2% DMSO, and 30 or 150 nM NS5B enzyme. Reactions were incubated at 22° C. for 2 hours, then stopped by adding 150 mM EDTA, washed in DE81 filter plate in 0.5M di-basic sodium phosphate buffer, pH 7.0, and counted using Packard TopCount after the addition of scintillation cocktail. Polynucleotide synthesis was monitored by the incorporation of radiolabeled CTP. The effect of the Compounds of Formula (I) on the polymerase activity was evaluated by adding various concentrations of a Compound of Formula (I), typically in 10 serial 2-fold dilutions, to the assay mixture. The starting concentrations of the indole derivatives ranged from 200 μM to 1 μM. An IC50 value for the inhibitor, defined as the compound concentration that provides 50% inhibition of polymerase activity, was determined by fitting the cpm data to the Hill equation Y=100/(1+10^((Log IC50−X)*HillSlope)), where X is the logarithm of compound concentration, and Y is the % inhibition. Ferrari et al., 12th International Symposium on HCV and Related Viruses, P-306 (2005) described in detail this assay procedure. It should be noted that such an assay as described is exemplary and not intended to limit the scope of the invention. The skilled practitioner can appreciate that modifications including but not limited to RNA template, primer, nucleotides, NS5B polymerase form, buffer composition, can be made to develop similar assays that yield the same result for the efficacy of the compounds and compositions described in the invention.
# NS5B polymerase inhibition data for selected Compounds of Formula (I) is provided below in Table 2, wherein the compound numbers correspond to the compound numbering set forth in the above specification.
# HCV replicon cells = assay: Cell-Based HCV Replicon Assay; conditions: Hepatitis C virus, 72 h; replicon RNA level by real time PCR (Taqman), cells harvested on day 3
# Description: To measure cell-based anti-HCV activity of the a Compound of Formula (I), replicon cells were seeded at 5000 cells/well in 96-well collagen I-coated Nunc plates in the presence of the Compound of Formula (I). Various concentrations of a Compound of Formula (I), typically in 10 serial 2-fold dilutions, were added to the assay mixture, the starting concentration of the compound ranging from 250 μM to 1 μM. The final concentration of DMSO was 0.5%, fetal bovine serum was 5%, in the assay media. Cells were harvested on day 3 by the addition of 1× cell lysis buffer (Ambion cat #8721). The replicon RNA level was measured using real time PCR (Taqman assay). The amplicon was located in 5B. The PCR primers were: 5B.2F, ATGGACAGGCGCCCTGA; 5B.2R, […]; the probe sequence was FAM-labeled CACGCCATGCGCTGCGG. GAPDH RNA was used as endogenous control and was amplified in the same reaction as NS5B (multiplex PCR) using primers and VIC-labeled probe recommended by the manufacturer (PE Applied Biosystem). The real-time RT-PCR reactions were run on ABI PRISM 7900HT Sequence Detection System using the following program: 48° C. for 30 min, 95° C. for 10 min, 40 cycles of 95° C. for 15 sec, 60° C. for 1 min. The ACT values (CT5B-CTGAPDH) were plotted against the concentration of test compound and fitted to the sigmoid dose-response model using XLfit4 (MDL). EC50 was defined as the concentration of inhibitor necessary to achieve ΔCT=1 over the projected baseline; EC90 the concentration necessary to achieve […] over the baseline. Alternatively, to quantitate the absolute amount of replicon RNA, a standard curve was established by including serially diluted T7 transcripts of replicon RNA in the Taqman assay. All Taqman reagents were from PE Applied Biosystems. Such an assay procedure was described in detail in e.g. Malcolm et al., Antimicrobial Agents and Chemotherapy 50: 1013-1020 (2006).
# HCV Replicon assay data for selected Compounds of Formula (I) is provided below in Table 3, wherein the compound numbers correspond to the compound numbering set forth in the above specification. The data is designated as follows: “A” for EC50 values less than 1.0 micromolar (μM), “B” for EC50 values between 1.0 and 10.0 μM and “C” for EC50 values greater than 10.0 μM.
SMILES,IC50 (HCV NS5B polymerase),EC50 (HCV replicon cells)
CS(=O)(=O)NC(=O)c1c(-c2ccc[nH]c2=O)c2c3c(ccc2n1Cc1cc(F)ccc1F)CCCO3 [Compound 29],< 25 nM,< 1 µM
O=C(NS(=O)(=O)C1CC1)c1c(-c2ccc[nH]c2=O)c2c3c(ccc2n1Cc1ccccc1F)CCCO3 [Compound 30],< 25 nM,< 1 µM
CS(=O)(=O)NC(=O)c1c(-c2ccc[nH]c2=O)c2c3c(ccc2n1Cc1ccccc1F)OCCO3 [Compound 28],< 25 nM,< 1 µM
O=C(O)c1c(-c2ccccc2F)c2c3ccccc3ccc2n1Cc1ccccc1 [Compound 2],> 100 nM,
O=C(O)c1c(-c2ccc[nH]c2=O)c2c3ncccc3ccc2n1Cc1ccc(F)cc1F [Compound 19],> 100 nM,
O=C(O)c1c(-c2ccc[nH]c2=O)c2c3ncccc3ccc2n1Cc1ccccc1F [Compound 18],> 100 nM,1 to 10 µM
O=C(NS(=O)(=O)C1CC1)c1c(-c2ccc[nH]c2=O)c2c3ccccc3c(F)cc2n1Cc1ccccc1F [Compound 31],< 25 nM,< 1 µM
CS(=O)(=O)NC(=O)c1c(-c2ccc[nH]c2=O)c2c3c(ccc2n1Cc1cc(F)ccc1F)OCCO3 [Compound 20],< 25 nM,< 1 µM
O=C(O)c1c(-c2ccc[nH]c2=O)c2c3ncccc3ccc2n1Cc1cc(F)ccc1F [Compound 17],25 to 100 nM,1 to 10 µM
Nc1cc(Cn2c(C(=O)NS(=O)(=O)c3ccc(O)cc3)c(-c3ccc[nH]c3=O)c3c4ccccc4ccc32)ccn1 [Compound 15],25 to 100 nM,1 to 10 µM
O=C(O)c1c(-c2ccc[nH]c2=O)c2c3c(ccc2n1Cc1cc(F)ccc1F)CCCO3 [Compound 25],< 25 nM,< 1 µM
CC(C)(C)S(=O)(=O)NC(=O)c1c(-c2ccc[nH]c2=O)c2c3ccccc3ccc2n1Cc1ccnc(N)c1 [Compound 13],25 to 100 nM,
O=C(O)c1c(-c2ccc[nH]c2=O)c2c3c(ccc2n1Cc1ccccc1F)OCCO3 [Compound 23],< 25 nM,1 to 10 µM
CS(=O)(=O)NC(=O)c1c(-c2ccc[nH]c2=O)c2c3ccccc3ccc2n1Cc1cccc(C(=O)O)c1 [Compound 12],< 25 nM,> 10 µM
Nc1cc(Cn2c(C(=O)O)c(-c3ccc[nH]c3=O)c3c4ccccc4ccc32)ccn1 [Compound 4],> 100 nM,1 to 10 µM
Nc1cc(Cn2c(C(=O)NS(=O)(=O)c3ccccc3)c(-c3ccc[nH]c3=O)c3c4ccccc4ccc32)ccn1 [Compound 11],25 to 100 nM,1 to 10 µM
O=C(NS(=O)(=O)C1CC1)c1c(-c2ccc[nH]c2=O)c2c3ccccc3c(F)cc2n1Cc1cc([N+](=O)[O-])ccc1F [Compound 33],< 25 nM,< 1 µM

SMILES,IC50 (HCV NS5B polymerase),EC50 (HCV replicon cells)
COC(=O)c1cccc(Cn2c(C(=O)NS(C)(=O)=O)c(-c3ccc[nH]c3=O)c3c4ccccc4ccc32)c1 [Compound 10],< 25 nM,1 to 10 µM
O=C(O)c1cccc(Cn2c(C(=O)O)c(-c3ccccc3F)c3c4ccccc4ccc32)c1 [Compound 7],> 100 nM,> 10 µM
O=C(O)c1c(-c2ccc[nH]c2=O)c2c3c(ccc2n1Cc1ccccc1F)CCCO3 [Compound 22],< 25 nM,< 1 µM
CS(=O)(=O)NC(=O)c1c(-c2ccc[nH]c2=O)c2c3ccccc3ccc2n1Cc1ccnc(N)c1 [Compound 6],25 to 100 nM,> 10 µM
O=C(O)c1cccc(Cn2c(C(=O)O)c(-c3ccc[nH]c3=O)c3c4ccccc4ccc32)c1 [Compound 8],> 100 nM,
O=C(O)c1c(-c2ccc[nH]c2=O)c2c3c(ccc2n1Cc1cc(F)ccc1F)OCCO3 [Compound 26],< 25 nM,< 1 µM
CS(=O)(=O)NC(=O)c1cccc(Cn2c(C(=O)NS(C)(=O)=O)c(-c3ccc[nH]c3=O)c3c4ccccc4ccc32)c1 [Compound 9],25 to 100 nM,
O=C(NS(=O)(=O)C1CC1)c1c(-c2ccc[nH]c2=O)c2c3c(ccc2n1Cc1cc(F)ccc1F)CCCO3 [Compound 32],< 25 nM,< 1 µM
Nc1cc(Cn2c(C(=O)O)c(-c3ccccc3F)c3c4ccccc4ccc32)ncn1 [Compound 5],> 100 nM,> 10 µM
Nc1cc(Cn2c(C(=O)O)c(-c3ccccc3F)c3c4ccccc4ccc32)ccn1 [Compound 3],> 100 nM,1 to 10 µM
O=C(O)c1c(-c2ccc[nH]c2=O)c2c3ccccc3c(F)cc2n1Cc1ccccc1F [Compound 24],25 to 100 nM,1 to 10 µM
CCS(=O)(=O)NC(=O)c1c(-c2ccc[nH]c2=O)c2c3ccccc3ccc2n1Cc1ccnc(N)c1 [Compound 14],25 to 100 nM,1 to 10 µM
Nc1ccccc1Cn1c(C(=O)O)c(-c2ccccc2F)c2c3ccccc3ccc21 [Compound 1],> 100 nM,> 10 µM
O=C(O)c1c(-c2ccc[nH]c2=O)c2c3ccccc3c(F)cc2n1Cc1cc([N+](=O)[O-])ccc1F [Compound 27],25 to 100 nM,< 1 µM
CS(=O)(=O)NC(=O)c1c(-c2ccc[nH]c2=O)c2c3c(ccc2n1Cc1ccccc1F)CCCO3 [Compound 21],< 25 nM,< 1 µM
CS(=O)(=O)Nc1cccc(S(=O)(=O)NC(=O)c2c(-c3ccc[nH]c3=O)c3c4ccccc4ccc3n2Cc2ccc(F)cc2F)c1 [Compound 16],< 25 nM,< 1 µM
